{"source": "EPA's ToxValDB 9.5 (doi:10.2903/j.efsa.2008.152r)", "key": {"Colinus virginianus": {"test_system": "Colinus virginianus", "settings": "acute, oral, mortality"}, "Bibionidae": {"test_system": "Bibionidae", "settings": "chronic/long-term; duration: 28 days"}, "Daphnia magna": {"test_system": "Daphnia magna", "settings": "chronic/long-term; duration: 21 days; reproduction"}, "Apis mellifera": {"test_system": "Apis mellifera", "settings": "acute, mortality"}, "Pimephales promelas": {"test_system": "Pimephales promelas", "settings": "chronic/long-term; duration: 28 days; growth"}, "Canidae": {"test_system": "Canidae", "settings": "chronic; duration: 1 years; oral; Dog Other; clinical chemistry"}, "Aphidius rhopalosiphi": {"test_system": "Aphidius rhopalosiphi", "assay": "LR50; higher = less toxic", "settings": "not reported; mortality"}}}
{"smiles": "NC(Cc1ncn[nH]1)C(=O)O", "note": "(configuration not stated) [1,2,4-Triazole-3-alanine]", "values": [{"measurement": "LC50", "setting": "Colinus virginianus; diet", "value": "> 5000", "unit": "mg/kg"}]}
{"smiles": "FC(F)C(F)(F)OCC(Cn1cncn1)c1ccc(Cl)cc1Cl", "note": "(configuration not stated) [Tetraconazole]", "values": [{"measurement": "LD50", "setting": "Rattus norvegicus; acute, mortality", "value": 1030, "unit": "mg/kg-day"}, {"measurement": "NOAEL", "setting": "Rattus norvegicus; chronic, duration: 2 years, oral, diet, organ weight", "value": 0.4, "unit": "mg/kg-day"}, {"measurement": "NOAEL", "setting": "Rattus norvegicus; reproduction developmental, body weight", "value": 5, "unit": "mg/kg-day"}, {"measurement": "NOAEL", "setting": "Rattus norvegicus; reproduction developmental, reproduction", "value": 3.6, "unit": "mg/kg-day"}, {"measurement": "NOEC", "setting": "Anas platyrhynchos; reproductive", "value": 1.6, "unit": "mg/kg-day"}, {"measurement": "LC50", "setting": "Anas platyrhynchos; short-term, oral, feed, mortality", "value": 55.5, "unit": "mg/kg-day"}, {"measurement": "NOEC", "setting": "Bibionidae", "value": 4.45, "unit": "mg/L"}, {"measurement": "LD50", "setting": "Colinus virginianus", "value": 132, "unit": "mg/kg-day"}, {"measurement": "NOEC", "setting": "Daphnia magna", "value": 0.19, "unit": "mg/L"}, {"measurement": "LD50", "setting": "Apis mellifera; dermal", "value": 63, "unit": "µg/piece"}, {"measurement": "LD50", "setting": "Apis mellifera; oral, unspecified", "value": "> 130", "unit": "µg/piece"}, {"measurement": "LC50", "setting": "Tagia sp.; acute, duration: 14 days, mortality", "value": 71, "unit": "mg/kg"}, {"measurement": "NOEC", "setting": "Tagia sp.; chronic/long-term, duration: 4 weeks", "value": "≤ 8.2", "unit": "mg/kg"}, {"measurement": "NOEC", "setting": "Pimephales promelas", "value": 0.3, "unit": "mg/L"}, {"measurement": "NOAEL", "setting": "Canidae", "value": 2.95, "unit": "mg/kg-day"}, {"measurement": "LR50", "setting": "Aphidius rhopalosiphi", "value": 125, "unit": "g/ha"}]}
